Measurements published in ChEMBL document CHEMBL1146955, “A novel series of arylsulfonylthiophene-2-carboxamidine inhibitors of the complement component C1s” (Bioorg Med Chem Lett, 2006).

Each molecule was assayed against T1, Complement C1s subcomponent (Homo sapiens, UniProt P09871) (assay: Inhibition of C1S).
T1 sequence (P09871 whole entry): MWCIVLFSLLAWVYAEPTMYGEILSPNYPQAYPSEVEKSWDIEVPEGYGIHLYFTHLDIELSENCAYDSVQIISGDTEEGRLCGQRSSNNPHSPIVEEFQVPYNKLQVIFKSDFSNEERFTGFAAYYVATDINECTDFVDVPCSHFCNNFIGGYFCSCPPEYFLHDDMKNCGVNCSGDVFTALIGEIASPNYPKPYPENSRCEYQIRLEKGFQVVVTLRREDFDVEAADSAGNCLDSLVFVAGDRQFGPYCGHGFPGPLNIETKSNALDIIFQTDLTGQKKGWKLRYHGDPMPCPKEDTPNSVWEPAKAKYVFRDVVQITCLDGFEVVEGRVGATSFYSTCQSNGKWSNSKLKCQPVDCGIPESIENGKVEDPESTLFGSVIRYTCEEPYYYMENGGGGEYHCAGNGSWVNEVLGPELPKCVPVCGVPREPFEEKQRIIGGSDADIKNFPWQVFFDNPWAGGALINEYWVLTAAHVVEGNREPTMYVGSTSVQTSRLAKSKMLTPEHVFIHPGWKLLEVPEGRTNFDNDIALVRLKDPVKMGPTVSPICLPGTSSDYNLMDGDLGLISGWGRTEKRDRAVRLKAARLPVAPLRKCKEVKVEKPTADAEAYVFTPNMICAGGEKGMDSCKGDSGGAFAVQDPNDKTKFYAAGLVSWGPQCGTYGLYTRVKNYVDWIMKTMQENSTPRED

Row | Ki | Structure (SMILES)
1 | 380 nM | CSc1sc(C(=N)N)cc1S(=O)(=O)c1cc(Br)c2c(c1)ncn2[C@H](C)c1ccccc1
2 | 330 nM | CSc1sc(C(=N)N)cc1S(=O)(=O)c1cc(Br)c2c(c1)ncn2[C@@H](C)c1ccccc1
3 | 400 nM | CSc1sc(C(=N)N)cc1S(=O)(=O)c1ccc2c(c1)ncn2Cc1ccccc1
4 | 580 nM | CSc1sc(C(=N)N)cc1S(=O)(=O)c1ccc2c(c1)ncn2Cc1ccccn1
5 | 240 nM | CSc1sc(C(=N)N)cc1S(=O)(=O)c1cc(Br)c2ncn(Cc3cc(F)ccc3F)c2c1
6 | 400 nM | CSc1sc(C(=N)N)cc1S(=O)(=O)c1cc(Br)c2c(c1)ncn2C
7 | 400 nM | CSc1sc(C(=N)N)cc1S(=O)(=O)c1cc(Br)c2ncn(Cc3ccccc3)c2c1
8 | 330 nM | CSc1sc(C(=N)N)cc1S(=O)(=O)c1cc(Br)c2ncn(C)c2c1
9 | 30 nM | CSc1sc(C(=N)N)cc1S(=O)(=O)c1cc(Br)c2c(c1)ncn2Cc1cc([N+](=O)[O-])ccc1F
10 | 210 nM | C=CCn1cnc2c(Br)cc(S(=O)(=O)c3cc(C(=N)N)sc3SC)cc21
11 | 100 nM | CSc1sc(C(=N)N)cc1S(=O)(=O)c1cc(Cl)c2c(c1)ncn2Cc1c(F)cccc1F
12 | 2290 nM | CSc1sc(C(=N)N)cc1S(=O)(=O)c1ccccn1
13 | 11000 nM | CSc1sc(C(=N)N)cc1S(=O)(=O)C(C)C
14 | 180 nM | CSc1sc(C(=N)N)cc1S(=O)(=O)c1cc(Br)c2ncn(-c3ccccc3)c2c1
15 | 200 nM | CSc1sc(C(=N)N)cc1S(=O)(=O)c1cc(Br)c2ncn(CC=C(C)C)c2c1
16 | 170 nM | CSc1sc(C(=N)N)cc1S(=O)(=O)c1cc(Br)c2ncn(Cc3cc([N+](=O)[O-])ccc3F)c2c1
17 | 20 nM | CSc1sc(C(=N)N)cc1S(=O)(=O)c1cc(Br)c2c(c1)ncn2Cc1c(Cl)cccc1Cl

Row | Ki | Structure (SMILES)
18 | 170 nM | CSc1sc(C(=N)N)cc1S(=O)(=O)c1cc(Br)c2ncn(Cc3c(F)cccc3F)c2c1
19 | 30 nM | CSc1sc(C(=N)N)cc1S(=O)(=O)c1cc(Br)c2c(c1)ncn2Cc1ccccc1
20 | 400 nM | CSc1sc(C(=N)N)cc1S(=O)(=O)c1cc(Br)c2nc[nH]c2c1
21 | 410 nM | CSc1sc(C(=N)N)cc1S(=O)(=O)c1ccc2ccccc2c1
22 | 2000 nM | CSc1sc(C(=N)N)cc1S(=O)(=O)Cc1ccccc1
23 | 1880 nM | CSc1sc(C(=N)N)cc1S(=O)(=O)c1nccn1C
24 | 420 nM | CSc1sc(C(=N)N)cc1S(=O)(=O)c1ccc2ncn(Cc3ccccc3)c2c1
25 | 2240 nM | CSc1sc(C(=N)N)cc1S(=O)(=O)c1cccs1
26 | 50 nM | CSc1sc(C(=N)N)cc1S(=O)(=O)c1cc(Br)c2c(c1)ncn2CC=C(C)C
27 | 100 nM | CSc1sc(C(=N)N)cc1S(=O)(=O)c1cc(Cl)c2ncn(Cc3c(F)cccc3F)c2c1
28 | 40 nM | CSc1sc(C(=N)N)cc1S(=O)(=O)c1cc(Br)c2c(c1)ncn2Cc1c(F)cccc1F
29 | 10 nM | CSc1sc(C(=N)N)cc1S(=O)(=O)c1cc(Br)c2c(c1)ncn2Cc1cc(F)ccc1F
30 | 310 nM | CSc1sc(C(=N)N)cc1S(=O)(=O)c1cc(Br)c2c(c1)ncn2-c1ccccc1
31 | 750 nM | CSc1sc(C(=N)N)cc1S(=O)(=O)c1ccccc1
32 | 160 nM | CSc1sc(C(=N)N)cc1S(=O)(=O)c1cc(Br)c2ncn(Cc3c(Cl)cccc3Cl)c2c1
33 | 70 nM | C=CCn1cnc2cc(S(=O)(=O)c3cc(C(=N)N)sc3SC)cc(Br)c21
34 | 1790 nM | CSc1sc(C(=N)N)cc1S(=O)(=O)c1ccoc1C

Each molecule was assayed against Urokinase-type plasminogen activator (Homo sapiens, UniProt P00749) (assay: Inhibition of uPA).

Row | Ki | Structure (SMILES)
35 | > 10000 nM | CSc1sc(C(=N)N)cc1S(=O)(=O)c1cc(Br)c2c(c1)ncn2Cc1cc(F)ccc1F

The molecules below were run against Tissue-type plasminogen activator (Homo sapiens, UniProt P00750) (assay: Inhibition of tPA).
Tissue-type plasminogen activator, sequence (P00750 whole entry): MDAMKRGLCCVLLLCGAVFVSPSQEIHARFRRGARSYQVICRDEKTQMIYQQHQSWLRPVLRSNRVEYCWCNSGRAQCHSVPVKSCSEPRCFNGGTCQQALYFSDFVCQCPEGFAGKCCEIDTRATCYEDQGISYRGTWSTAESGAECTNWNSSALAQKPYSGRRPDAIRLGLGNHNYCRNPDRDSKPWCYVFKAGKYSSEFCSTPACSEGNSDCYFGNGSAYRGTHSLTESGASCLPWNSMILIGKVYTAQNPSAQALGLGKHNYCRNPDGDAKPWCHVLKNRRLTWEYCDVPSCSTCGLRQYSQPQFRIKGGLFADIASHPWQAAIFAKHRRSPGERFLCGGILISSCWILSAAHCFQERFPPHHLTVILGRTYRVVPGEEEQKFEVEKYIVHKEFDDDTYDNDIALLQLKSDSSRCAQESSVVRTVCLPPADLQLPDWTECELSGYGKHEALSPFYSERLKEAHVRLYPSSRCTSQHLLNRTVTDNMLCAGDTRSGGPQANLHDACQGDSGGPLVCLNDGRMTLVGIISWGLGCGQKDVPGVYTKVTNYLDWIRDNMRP

Row | Ki | Structure (SMILES)
36 | > 10000 nM | CSc1sc(C(=N)N)cc1S(=O)(=O)c1cc(Br)c2c(c1)ncn2Cc1cc(F)ccc1F

These molecules were tested against Coagulation factor X (Homo sapiens, UniProt P00742) (assay: Inhibition of F10a).
Coagulation factor X, sequence (P00742 41-179 limits assumed): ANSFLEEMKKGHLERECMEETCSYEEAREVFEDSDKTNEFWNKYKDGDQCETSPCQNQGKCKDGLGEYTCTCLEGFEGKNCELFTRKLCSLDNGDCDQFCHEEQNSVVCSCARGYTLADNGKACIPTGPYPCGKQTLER
Coagulation factor X, sequence (P00742 235-488 limits assumed): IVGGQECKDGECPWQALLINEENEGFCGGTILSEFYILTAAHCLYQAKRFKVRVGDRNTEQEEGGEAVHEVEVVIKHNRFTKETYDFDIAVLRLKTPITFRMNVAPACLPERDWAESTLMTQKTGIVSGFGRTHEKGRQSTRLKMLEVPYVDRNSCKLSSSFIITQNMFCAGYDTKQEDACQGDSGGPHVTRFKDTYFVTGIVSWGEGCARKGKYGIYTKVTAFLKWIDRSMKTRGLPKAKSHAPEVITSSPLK

Row | Ki | Structure (SMILES)
37 | 11400 nM | CSc1sc(C(=N)N)cc1S(=O)(=O)c1cc(Br)c2c(c1)ncn2Cc1cc(F)ccc1F

What follows are molecules tested against Prothrombin (Homo sapiens, UniProt P00734) (assay: Inhibition of thrombin).

Row | Ki | Structure (SMILES)
38 | > 15000 nM | CSc1sc(C(=N)N)cc1S(=O)(=O)c1cc(Br)c2c(c1)ncn2Cc1cc(F)ccc1F

These molecules were tested against Plasminogen (Homo sapiens, UniProt P00747) (assay: Inhibition of plasmin).
Plasminogen, sequence (P00747 97-580 limits assumed): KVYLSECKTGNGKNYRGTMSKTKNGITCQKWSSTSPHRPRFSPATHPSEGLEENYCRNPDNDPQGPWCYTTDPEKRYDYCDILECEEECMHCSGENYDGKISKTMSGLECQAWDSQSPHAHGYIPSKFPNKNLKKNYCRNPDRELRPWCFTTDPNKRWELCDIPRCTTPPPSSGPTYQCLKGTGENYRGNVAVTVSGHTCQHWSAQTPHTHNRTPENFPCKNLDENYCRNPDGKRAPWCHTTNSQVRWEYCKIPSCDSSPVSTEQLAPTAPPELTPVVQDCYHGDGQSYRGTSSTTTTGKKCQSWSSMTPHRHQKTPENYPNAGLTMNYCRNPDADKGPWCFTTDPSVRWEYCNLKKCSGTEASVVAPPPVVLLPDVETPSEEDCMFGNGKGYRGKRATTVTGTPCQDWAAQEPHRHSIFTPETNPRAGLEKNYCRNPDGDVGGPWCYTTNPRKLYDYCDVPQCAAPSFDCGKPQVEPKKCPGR
Plasminogen, sequence (P00747 581-810 limits assumed): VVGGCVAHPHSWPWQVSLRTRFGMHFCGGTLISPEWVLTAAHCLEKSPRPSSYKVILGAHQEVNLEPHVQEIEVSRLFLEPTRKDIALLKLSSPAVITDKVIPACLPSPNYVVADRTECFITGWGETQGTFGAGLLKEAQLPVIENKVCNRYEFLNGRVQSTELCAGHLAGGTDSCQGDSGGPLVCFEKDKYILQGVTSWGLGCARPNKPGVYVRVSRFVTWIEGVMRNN

Row | Ki | Structure (SMILES)
39 | > 13000 nM | CSc1sc(C(=N)N)cc1S(=O)(=O)c1cc(Br)c2c(c1)ncn2Cc1cc(F)ccc1F

Each molecule was assayed against Trypsin (Homo sapiens, UniProt P07477+P07478+P35030) (assay: Inhibition of trypsin).
Assay type: protein assay

Row | Ki | Structure (SMILES)
40 | 1400 nM | CSc1sc(C(=N)N)cc1S(=O)(=O)c1cc(Br)c2c(c1)ncn2Cc1cc(F)ccc1F
